Where a SMILES comes first, the peptide text is derived from it. Bridges are numbered along the chain shown (N, C = ends). [ ]: non-standard residue; d: D form. The star is where a group is joined. Val(Nα-amidino) = CC(C)[C@H](NC(=N)N)C(=O)*; dDab(iPr) = CC(C)NCC[C@@H](N)C(=O)O; Dab(iPr) = CC(C)NCC[C@H](N)C(=O)O; Hyp = O=C(O)[C@@H]1C[C@@H](O)CN1; Cit = NC(=O)NCCC[C@H](N)C(=O)O; Pen = CC(C)(S)[C@H](N)C(=O)O; dDab = NCC[C@@H](N)C(=O)O; Dab = NCC[C@H](N)C(=O)O
Assays:
Format in all cases: cell-based
[1] = tested on: Escherichia coli ATCC 25922; settings: ATCC 25922
Outline: (§1)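 MICs were determined by CLSI broth microdilution in cation-adjusted Mueller-Hinton II broth with about 5×10^5 CFU/mL inoculum. Peptides were tested in two-fold serial dilutions with 0.002% polysorbate 80 final. MIC in μg/mL is the lowest concentration with no visible growth after 18-20 h at 35 °C.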

[2] = tested on: Escherichia coli MCR-1 Af 45; settings: MCR-1 Af 45
Outline: as §1

[3] = tested on: Klebsiella pneumoniae SSI3010; settings: SSI3010
Outline: as §1

[4] = tested on: human red blood cells (hRBC); settings: red cells of human, 1 h, 200 μg/mL
Outline: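 Percent hemolysis derived from OD540 of supernatants relative to full lysis by 2.5% Triton X-100 (PBS baseline). Washed fresh human erythrocytes (20% v/v) were exposed to 200 μg/mL peptide for 1 h at 37 °C with shaking.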

| SMILES | Escherichia coli ATCC 25922 MIC [1] [mg/L] | Escherichia coli MCR-1 Af45 MIC [2] [mg/L] | Klebsiella pneumoniae SSI3010 MIC [3] [mg/L] | Hemolysis at 0.2 g/L [4] [%] |
| --- | --- | --- | --- | --- |
| CC[C@H](C)[C@H](NC(=O)[C@@H]1C[C@@H](O)CN1C(=O)[C@@H](NC(=N)N)C(C)C)C(=O)N[C@H]1CCNC(=O)CC[C@@H](C(=O)N[C@@H](Cc2ccc(O)cc2)C(=O)O)NC(=O)[C@H](CCN)NC(=O)[C@H](CCN)NC(=O)[C@H](CCCCN)NC(=O)[C@@H](CCN)NC(=O)[C@H](CO)NC(=O)[C@H](CCN)NC(=O)[C@H](CCCNC(=N)N)NC(=O)[C@H](CC(N)=O)NC(=O)[C@H]([C@@H](C)O)NC(=O)[C@H](Cc2ccc(O)cc2)NC1=O [Example 86, Gua-Val-Hyp-Ile-Dab-Tyr-Thr-Asn-Arg-Dab-Ser-^DDab-Lys-Dab-Dab-Glu-Tyr] ({Val(Nα-amidino)}-[Hyp]I[Dab]YTNR[Dab]S[dDab]K[Dab][Dab]EY-OH; lactam 3-14) | 0.03125 | 0.03125 | 0.0625 | <1 |
| CC[C@H](C)[C@H](NC(=O)[C@@H]1C[C@@H](O)CN1C(=O)[C@@H](NC(=N)N)C(C)C)C(=O)N[C@H]1CCC(=O)NCC[C@@H](C(=O)N[C@@H](Cc2ccc(O)cc2)C(=O)O)NC(=O)[C@H](CCN)NC(=O)[C@H](CCN)NC(=O)[C@H](CCCCN)NC(=O)[C@@H](CCN)NC(=O)[C@H]([C@@H](C)O)NC(=O)[C@H](CCN)NC(=O)[C@H](CCCNC(=N)N)NC(=O)[C@H](CC(N)=O)NC(=O)[C@H](CO)NC(=O)[C@H](Cc2ccc(O)cc2)NC1=O [Example 87, Gua-Val-Hyp-Ile-Glu-Tyr-Ser-Asn-Arg-Dab-Thr-^DDab-Lys-Dab-Dab-Dab-Tyr] ({Val(Nα-amidino)}-[Hyp]IEYSNR[Dab]T[dDab]K[Dab][Dab][Dab]Y-OH; lactam 3-14) | 0.125 | 0.0625 | 0.125 | <1 |
| CC[C@H](C)[C@H](NC(=O)[C@@H]1C[C@@H](O)CN1C(=O)[C@@H](NC(=N)N)C(C)C)C(=O)N[C@H]1CCC(=O)NCC[C@@H](C(=O)N[C@@H](Cc2ccc(O)cc2)C(=O)O)NC(=O)[C@H](CCN)NC(=O)[C@H](CCN)NC(=O)[C@H](CCCCN)NC(=O)[C@@H](CCN)NC(=O)[C@H]([C@@H](C)O)NC(=O)[C@H](CCN)NC(=O)[C@H](CCCNC(=N)N)NC(=O)[C@H](CC(N)=O)NC(=O)[C@H]([C@@H](C)O)NC(=O)[C@H](Cc2ccc(O)cc2)NC1=O [Example 88, Gua-Val-Hyp-Ile-Glu-Tyr-Thr-Asn-Arg-Dab-Thr-^DDab-Lys-Dab-Dab-Dab-Tyr] ({Val(Nα-amidino)}-[Hyp]IEYTNR[Dab]T[dDab]K[Dab][Dab][Dab]Y-OH; lactam 3-14) | 0.125 | 0.0625 | 0.125 | <1 |
| CC[C@H](C)[C@H](NC(=O)[C@@H]1C[C@@H](O)CN1C(=O)[C@@H](NC(=N)N)C(C)C)C(=O)N[C@H]1CCC(=O)NCC[C@@H](C(=O)N[C@@H](Cc2ccc(O)cc2)C(=O)O)NC(=O)[C@H](CCN)NC(=O)[C@H](CCN)NC(=O)[C@H](CCCCN)NC(=O)[C@@H](CCN)NC(=O)[C@H](CO)NC(=O)[C@H](CCN)NC(=O)[C@H](CCCNC(=N)N)NC(=O)[C@H](CC(N)=O)NC(=O)[C@H]([C@@H](C)O)NC(=O)[C@H](Cc2ccc(O)cc2)NC1=O [Example 89, Gua-Val-Hyp-Ile-Glu-Tyr-Thr-Asn-Arg-Dab-Ser-^DDab-Lys-Dab-Dab-Dab-Tyr] ({Val(Nα-amidino)}-[Hyp]IEYTNR[Dab]S[dDab]K[Dab][Dab][Dab]Y-OH; lactam 3-14) | 0.125 | 0.125 | 0.125 | <1 |
| CC[C@H](C)[C@H](NC(=O)[C@@H]1C[C@@H](O)CN1C(=O)[C@@H](NC(=N)N)C(C)C)C(=O)N[C@@H]1C(=O)N[C@@H](Cc2ccc(O)cc2)C(=O)N[C@@H](CO)C(=O)N[C@@H](CC(N)=O)C(=O)N[C@@H](CCCNC(=N)N)C(=O)N[C@@H](CCN)C(=O)N[C@@H]([C@@H](C)O)C(=O)N[C@H](CCN)C(=O)N[C@@H]([C@@H](C)O)C(=O)N[C@@H](CCN)C(=O)N[C@@H](CCN)C(=O)N[C@H](C(=O)N[C@@H](Cc2ccc(O)cc2)C(=O)O)CSSC1(C)C [Example 90, Gua-Val-Hyp-Ile-Pen-Tyr-Ser-Asn-Arg-Dab-Thr-^DDab-Thr-Dab-Dab-Cys-Tyr] ({Val(Nα-amidino)}-[Hyp]I[Pen]YSNR[Dab]T[dDab]T[Dab][Dab]CY-OH; disulfide 3-14) | 0.25 | 0.125 | 0.25 | <1 |
| CC[C@H](C)[C@H](NC(=O)[C@@H]1C[C@@H](O)CN1C(=O)[C@@H](NC(=N)N)C(C)C)C(=O)N[C@@H]1C(=O)N[C@@H](Cc2ccc(O)cc2)C(=O)N[C@@H]([C@@H](C)O)C(=O)N[C@@H](CC(N)=O)C(=O)N[C@@H](CCCNC(=N)N)C(=O)N[C@@H](CCCNC(N)=O)C(=O)N[C@@H]([C@@H](C)O)C(=O)N[C@H](CCN)C(=O)N[C@@H](CCCCN)C(=O)N[C@@H](CCN)C(=O)N[C@@H](CCN)C(=O)N[C@H](C(=O)N[C@@H](Cc2ccc(O)cc2)C(=O)O)CSSC1(C)C [Example 91, Gua-Val-Hyp-Ile-Pen-Tyr-Thr-Asn-Arg-Cit-Thr-^DDab-Lys-Dab-Dab-Cys-Y] ({Val(Nα-amidino)}-[Hyp]I[Pen]YTNR[Cit]T[dDab]K[Dab][Dab]CY-OH; disulfide 3-14) | 0.125 | 0.125 | 0.25 | <1 |

Now from value to molecule, other results behind:

| Escherichia coli ATCC 25922 MIC [1] [mg/L] | Escherichia coli MCR-1 Af45 MIC [2] [mg/L] | Klebsiella pneumoniae SSI3010 MIC [3] [mg/L] | SMILES | Hemolysis at 0.2 g/L [4] [%] |
| --- | --- | --- | --- | --- |
| 0.0625 | 0.0625 | 0.25 | CC[C@H](C)[C@H](NC(=O)[C@@H]1C[C@@H](O)CN1C(=O)[C@@H](NC(=N)N)C(C)C)C(=O)N[C@@H]1C(=O)N[C@@H](Cc2ccc(O)cc2)C(=O)N[C@@H]([C@@H](C)O)C(=O)N[C@@H](CC(N)=O)C(=O)N[C@@H](CCCNC(=N)N)C(=O)N[C@@H](CCNC(C)C)C(=O)N[C@@H]([C@@H](C)O)C(=O)N[C@H](CCN)C(=O)N[C@@H](CCCCN)C(=O)N[C@@H](CCN)C(=O)N[C@@H](CCN)C(=O)N[C@H](C(=O)N[C@@H](Cc2ccc(O)cc2)C(=O)O)CSSC1(C)C [Example 92, Gua-Val-Hyp-Ile-Pen-Tyr-Thr-Asn-Arg-Dab(iPr)-Thr-^DDab-Lys-Dab-Dab-Cys-Tyr] ({Val(Nα-amidino)}-[Hyp]I[Pen]YTNR[Dab(iPr)]T[dDab]K[Dab][Dab]CY-OH; disulfide 3-14) | <1 |
| 0.25 | 0.25 | 0.5 | CC[C@H](C)[C@H](NC(=O)[C@@H]1C[C@@H](O)CN1C(=O)[C@@H](NC(=N)N)C(C)C)C(=O)N[C@@H]1C(=O)N[C@@H](Cc2ccc(O)cc2)C(=O)N[C@@H]([C@@H](C)O)C(=O)N[C@@H](CC(N)=O)C(=O)N[C@@H](CCCNC(=N)N)C(=O)N[C@@H](CCNC(C)C)C(=O)N[C@@H]([C@@H](C)O)C(=O)N[C@H](CCN)C(=O)N[C@@H](CO)C(=O)N[C@@H](CCN)C(=O)N[C@@H](CCN)C(=O)N[C@H](C(=O)N[C@@H](Cc2ccc(O)cc2)C(=O)O)CSSC1(C)C [Example 93, Gua-Val-Hyp-Ile-Pen-Tyr-Thr-Asn-Arg-Dab(iPr)-Thr-^DDab-Ser-Dab-Dab-Cys-Tyr] ({Val(Nα-amidino)}-[Hyp]I[Pen]YTNR[Dab(iPr)]T[dDab]S[Dab][Dab]CY-OH; disulfide 3-14) | <1 |
| 0.25 | 0.125 | 0.25 | CC[C@H](C)[C@H](NC(=O)[C@@H]1C[C@@H](O)CN1C(=O)[C@@H](NC(=N)N)C(C)C)C(=O)N[C@@H]1C(=O)N[C@@H](Cc2ccc(O)cc2)C(=O)N[C@@H](CO)C(=O)N[C@@H](CC(N)=O)C(=O)N[C@@H](CCCNC(=N)N)C(=O)N[C@@H](CCN)C(=O)N[C@@H](CC(N)=O)C(=O)N[C@H](CCN)C(=O)N[C@@H](CCCCN)C(=O)N[C@@H](CCN)C(=O)N[C@@H](CCN)C(=O)N[C@H](C(=O)N[C@@H](Cc2ccc(O)cc2)C(=O)O)CSSC1(C)C [Example 94, Gua-Val-Hyp-Ile-Pen-Tyr-Ser-Asn-Arg-Dab-Asn-^DDab-Lys-Dab-Dab-Cys-Tyr] ({Val(Nα-amidino)}-[Hyp]I[Pen]YSNR[Dab]N[dDab]K[Dab][Dab]CY-OH; disulfide 3-14) | <1 |
| 0.125 | 0.125 | 0.25 | CC[C@H](C)[C@H](NC(=O)[C@@H]1C[C@@H](O)CN1C(=O)[C@@H](NC(=N)N)C(C)C)C(=O)N[C@@H]1C(=O)N[C@@H](Cc2ccc(O)cc2)C(=O)N[C@@H]([C@@H](C)O)C(=O)N[C@@H](CC(N)=O)C(=O)N[C@@H](CCCNC(=N)N)C(=O)N[C@@H](CCN)C(=O)N[C@@H]([C@@H](C)O)C(=O)N[C@H](CCNC(C)C)C(=O)N[C@@H](CCCCN)C(=O)N[C@@H](CCN)C(=O)N[C@@H](CCN)C(=O)N[C@H](C(=O)N[C@@H](Cc2ccc(O)cc2)C(=O)O)CSSC1(C)C [Example 95, Gua-Val-Hyp-Ile-Pen-Tyr-Thr-Asn-Arg-Dab-Thr-^DDab(iPr)-Lys-Dab-Dab-Cys-Tyr] ({Val(Nα-amidino)}-[Hyp]I[Pen]YTNR[Dab]T[dDab(iPr)]K[Dab][Dab]CY-OH; disulfide 3-14) | <1 |

Source: patent US20240336654A1, “ANTIMICROBIAL PEPTIDOMIMETICS” (SPEXIS AG, priority 2021, published 2024)
